Test results: ChEMBL document CHEMBL5614415, “Recent advances and challenges of revolutionizing drug-resistant tuberculosis treatment” (Eur J Med Chem, 2024)
Values after ≈ are worked out from the molar mass of the structure shown.

What follows are compounds tested on Mycobacterium tuberculosis (assay: Antimycobacterial activity against extensively drug resistant Mycobacterium tuberculosis assessed as reduction in microbial growth). Settings: not given.
Type: functional

Compound	MIC50 [µg/mL]
CCOc1ccc(Cl)c2c1B(O)O[C@@H]2CN	0.3
NC[C@@H]1OB(O)c2c(OCCO)ccc(Cl)c21	5
Cl.NC[C@H]1OB(O)c2c(OCCO)ccc(Cl)c21	0.023
CCCOc1ccc(Cl)c2c1B(O)O[C@@H]2CN	0.16
CCCOc1ccc(Br)c2c1B(O)O[C@@H]2CN	0.38
NC[C@H]1OB(O)c2c(OCCO)ccc(Br)c21	0.08
CCCCOc1ccc(Br)c2c1B(O)O[C@@H]2CN	0.45
NCC1OB(O)c2c(Oc3ccccc3)ccc(Cl)c21 (stereo not drawn)	5
COc1ccc(Br)c2c1B(O)O[C@@H]2CN	0.1
NCC1OB(O)c2c(OCCc3ccccc3)ccc(Cl)c21 (stereo not drawn)	5
NC[C@@H]1OB(O)c2c(OCCO)ccc(Br)c21	10
CCCCOc1ccc(Cl)c2c1B(O)O[C@@H]2CN	0.6
CCOc1ccc(Br)c2c1B(O)O[C@@H]2CN	0.4
COc1ccc(Cl)c2c1B(O)O[C@@H]2CN	0.1
NCC1OB(O)c2c(OCc3ccccc3)ccc(Cl)c21 (stereo not drawn)	5

What follows are compounds tested on Mycobacterium tuberculosis (assay: Antibacterial activity against fluoroquinolone-resistant Mycobacterium tuberculosis H37Rv assessed as reduction in bacterial growth measured after 16 to 18 hrs by serial dilution method). Settings: time 16-18 hrs.
Type: functional

Compound	MIC90 [µg/mL]
COc1c(N2CCNC(C)C2)c(F)cc2c(=O)c(C(=O)O)cn(C3CC3)c12 (stereo not drawn) [GATIFLOXACIN]	0.06 (≈ 0.16 µM)

What follows are compounds tested on Mycobacterium tuberculosis (assay: Antitubercular activity against Multi-drug resistant Mycobacterium tuberculosis assessed as inhibition of bacterial growth incubated for 14 days by broth microdilution method). Settings: 336 h, time 14 day.
Type: functional

Compound	MIC50 [µg/mL]
CC(C)/N=c1\cc2n(-c3ccc(Cl)cc3)c3ccccc3nc-2cc1Nc1ccc(Cl)cc1 [CLOFAZIMINE]	0.12 (≈ 0.253 µM)
COc1ncccc1Nc1cc2nc3ccccc3n(-c3ccc(OC(F)(F)F)cc3)c-2c/c1=N\C1CCC(OC)CC1 (stereo not drawn)	0.06 (≈ 0.102 µM)
